Test results published in US10072001B2, “Tank-binding kinase inhibitor compounds” (Gilead Sciences, Inc., priority 2014, dated 2018).

Tests used:
TBK1 = TBK1 (Homo sapiens (Human), UniProt Q9UHD2); experiment: TR-FRET kinase assay, TBK1; conditions: read-out: TBK1-IC50; full length recombinant TBK1 2.5 nM, 2x Km ATP, 1 μM peptide, 240 min at 25° C.; geometric mean of minimum four determinations
TBK1, sequence (Q9UHD2 whole entry): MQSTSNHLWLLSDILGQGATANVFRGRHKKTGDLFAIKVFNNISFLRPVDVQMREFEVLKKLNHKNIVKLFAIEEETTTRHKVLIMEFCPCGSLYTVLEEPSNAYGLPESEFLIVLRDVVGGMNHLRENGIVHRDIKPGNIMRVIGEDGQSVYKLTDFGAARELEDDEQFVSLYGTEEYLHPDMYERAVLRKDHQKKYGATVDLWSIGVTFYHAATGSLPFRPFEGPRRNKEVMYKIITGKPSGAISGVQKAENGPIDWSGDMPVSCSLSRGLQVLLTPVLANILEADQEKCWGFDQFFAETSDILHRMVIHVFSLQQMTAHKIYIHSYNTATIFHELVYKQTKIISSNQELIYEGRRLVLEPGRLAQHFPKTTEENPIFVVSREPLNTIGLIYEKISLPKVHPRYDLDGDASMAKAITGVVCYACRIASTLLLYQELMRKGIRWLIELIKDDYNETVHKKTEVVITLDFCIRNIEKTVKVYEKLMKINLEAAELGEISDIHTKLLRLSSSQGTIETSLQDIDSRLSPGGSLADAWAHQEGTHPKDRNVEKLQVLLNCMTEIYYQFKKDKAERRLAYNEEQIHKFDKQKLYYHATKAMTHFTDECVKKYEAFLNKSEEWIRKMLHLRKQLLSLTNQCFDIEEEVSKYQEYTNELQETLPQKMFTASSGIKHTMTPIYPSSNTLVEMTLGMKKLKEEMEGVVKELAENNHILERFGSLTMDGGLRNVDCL

IKKε = IKKε (Homo sapiens (Human), UniProt Q14164); experiment: TR-FRET kinase assay, IKKε; assay type: biochemical; conditions: full length recombinant IKKε 0.3 nM, 2x Km ATP, 1 μM peptide, 240 min at 25° C.; geometric mean of minimum four determinations
IKKε, sequence (Q14164 whole entry): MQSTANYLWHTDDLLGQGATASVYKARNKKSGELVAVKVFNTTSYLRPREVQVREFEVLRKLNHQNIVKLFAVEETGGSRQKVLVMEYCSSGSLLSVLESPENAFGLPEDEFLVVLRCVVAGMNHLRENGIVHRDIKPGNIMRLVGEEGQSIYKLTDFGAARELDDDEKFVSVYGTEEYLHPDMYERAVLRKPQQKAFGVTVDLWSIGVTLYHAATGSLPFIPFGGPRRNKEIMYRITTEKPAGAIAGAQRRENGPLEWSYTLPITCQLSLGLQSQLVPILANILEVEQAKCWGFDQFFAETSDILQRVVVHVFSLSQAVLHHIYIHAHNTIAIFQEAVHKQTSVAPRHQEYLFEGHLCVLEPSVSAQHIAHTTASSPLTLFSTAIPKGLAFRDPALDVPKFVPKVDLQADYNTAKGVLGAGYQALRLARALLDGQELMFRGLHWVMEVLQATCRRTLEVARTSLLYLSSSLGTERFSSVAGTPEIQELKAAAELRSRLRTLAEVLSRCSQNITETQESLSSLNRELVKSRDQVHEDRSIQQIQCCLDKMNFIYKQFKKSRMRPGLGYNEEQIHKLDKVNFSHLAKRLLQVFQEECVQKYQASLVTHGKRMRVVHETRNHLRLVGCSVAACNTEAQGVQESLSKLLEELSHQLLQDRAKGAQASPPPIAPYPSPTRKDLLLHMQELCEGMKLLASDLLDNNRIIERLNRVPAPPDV
Description: Biological Assay for TBK1 and IKKs:

With N#Cc1cc(-c2c(F)cnc3[nH]c(-c4ccc(OCCN5CCCC5)cc4)cc23)ccc1OC1CCOCC1 [Example 174, 5-(5-fluoro-2-(4-(2-(pyrrolidin-1-yl)ethoxy)phenyl)-1H-pyrrolo[2,3-b]pyridin-4-yl)-2-((tetrahydro-2H-pyran-4-yl)oxy)benzonitrile] the IC50 (TBK1) was 6.35 nM and the IC50 (IKKε) was 8.3 nM.
For COc1ccc(-c2cc3c(-c4ccc(OC5CCN(C(=O)CO)CC5)c(C#N)c4)ncnc3[nH]2)c(C)c1 [Example 131, 2-((1-(2-hydroxyacetyl)piperidin-4-yl)oxy)-5-(6-(4-methoxy-2-methylphenyl)-7H-pyrrolo[2,3-d]pyrimidin-4-yl)benzonitrile], the IC50 (TBK1) was 5.68 nM and the IC50 (IKKε) was 12.4 nM.
COc1cc(N2CCOCC2)ccc1-c1cc2c(-c3ccc(OC4CCOCC4)c(C#N)c3)ncnc2[nH]1 [Example 137, 5-(6-(2-methoxy-4-morpholinophenyl)-7H-pyrrolo[2,3-d]pyrimidin-4-yl)-2-((tetrahydro-2H-pyran-4-yl)oxy)benzonitrile] was tested, and the IC50 (TBK1) was 9.78 nM and the IC50 (IKKε) was 47.5 nM.
N#CCC(=O)N1CC[C@@H](Oc2ccc(-c3ccnc4[nH]c(-c5ccc(N6CCOCC6)cc5)cc34)cc2C#N)C1 [Example 16, (R)-2-((1-(2-cyanoacetyl)pyrrolidin-3-yl)oxy)-5-(2-(4-morpholinophenyl)-1H-pyrrolo[2,3-b]pyridin-4-yl)benzonitrile] showed an IC50 (TBK1) of 4.32 nM and an IC50 (IKKε) of 13.8 nM.
CN1CCN(c2ccc(-c3nc4c(-c5ccc(OC6CCN(C(=O)CO)CC6)c(C#N)c5)ncnc4[nH]3)cc2)CC1 [Example 251, 2-((1-(2-hydroxyacetyl)piperidin-4-yl)oxy)-5-(8-(4-(4-methylpiperazin-1-yl)phenyl)-9H-purin-6-yl)benzonitrile] showed an IC50 (TBK1) of 0.883 nM and an IC50 (IKKε) of 0.815 nM.
C[C@H](O)C(=O)N1CC[C@@H](Oc2ccc(-c3ncnc4[nH]c(-c5ccc(N6CCOCC6)cc5)nc34)cc2C#N)C1 [Example 210, 2-(((R)-1-((S)-2-hydroxypropanoyl)pyrrolidin-3-yl)oxy)-5-(8-(4-morpholinophenyl)-9H-purin-6-yl)benzonitrile] was tested, and the IC50 (TBK1) was 38.9 nM and the IC50 (IKKε) was over 875 nM.
With N#Cc1cc(-c2ccnc3[nH]c(C4=CCN(C5COC5)C4)cc23)ccc1OC1CCOCC1 [Example 178, 5-(2-(1-(oxetan-3-yl)-2,5-dihydro-1H-pyrrol-3-yl)-1H-pyrrolo[2,3-b]pyridin-4-yl)-2-((tetrahydro-2H-pyran-4-yl)oxy)benzonitrile] the IC50 (TBK1) was 7.82 nM and the IC50 (IKKε) was 18.3 nM.
Work on CC(C)(O)c1ccc(-c2cc3c(-c4cc(C#N)c(OC5CCOCC5)cn4)ccnc3[nH]2)cc1 [Example 170, 2-(2-(4-(2-Hydroxypropan-2-yl)phenyl)-1H-pyrrolo[2,3-b]pyridin-4-yl)-5-((tetrahydro-2H-pyran-4-yl)oxy)isonicotinonitrile] yielded an IC50 (TBK1) of 3.84 nM and an IC50 (IKKε) of 8.18 nM.
In the case of N#Cc1cc(-c2ncnc3[nH]c(-c4ccc(C5CCN(CC(F)F)CC5)cc4)nc23)ccc1OC1CCNCC1 [Example 260, 5-(8-(4-(1-(2,2-difluoroethyl)piperidin-4-yl)phenyl)-9H-purin-6-yl)-2-(piperidin-4-yloxy)benzonitrile], the IC50 (TBK1) is reported as 26 nM and the IC50 (IKKε) is reported as 84.4 nM.
CC(C)(O)c1ccc(-c2cc3c(-c4ccc(O[C@@H]5CCN(C(=O)CO)C5)c(C#N)c4)ccnc3[nH]2)cc1 [Example 149, (R)-2-((1-(2-hydroxyacetyl)pyrrolidin-3-yl)oxy)-5-(2-(4-(2-hydroxypropan-2-yl)phenyl)-1H-pyrrolo[2,3-b]pyridin-4-yl)benzonitrile] gave an IC50 (TBK1) of 1.54 nM and an IC50 (IKKε) of 2.27 nM.
CC(=O)N1CCC(Oc2ccc(-c3ncnc4[nH]c(-c5ccc(N6CCOCC6)cc5)nc34)cc2C#N)CC1 [Example 249, 2-((1-acetylpiperidin-4-yl)oxy)-5-(8-(4-morpholinophenyl)-9H-purin-6-yl)benzonitrile] gave an IC50 (TBK1) of 6.09 nM and an IC50 (IKKε) of 14.2 nM.
